The text below walks through data of patent publication US7115572B2, “Indolicidin analogs with anti-microbial activity” (Council of Scientific and Industrial Research, priority 2001, dated 2006).

Where two headings read alike, the source gives them in different places. Marks after values point to notes of the source that are not given here. No end group written: not given here.

Common to all, as to type: cell-based
The subject of data set [1] is Escherichia coli (W160.37). How it is done: (§1) In still another embodiment of the present invention, the antimicrobial activities of the peptides are determined in liquid medium by a modified method described by Lehrer et al. (10) In still another embodiment of the present invention, all incubations are carried out at 37° C. Microbial growth is determined by measuring the increase in OD600. The lowest concentration of the peptide that result in complete inhibition of growth is recorded as its minimal inhibitory concentration (MIC). In still another embodiment of the present invention, the microorganisms used are Escherichia coli ([…]) and Staphylococcus aureus. A peptide concentration in stock solution is determined by amino acid analysis.

Another data set relates to Staphylococcus aureus. How it is done: as §1
Another data set relates to rat erythrocytes. Nature of the data set: Hemolytic activity on freshly isolated rat erythrocytes. How it is done: In still another embodiment of the present invention, hemolytic activity of the peptides is assessed on freshly isolated rat erythrocytes.
In still another embodiment of the present invention, heparinized rat blood in saline is initially centrifuged at 1000 rpm for 10 min to remove the buffy coat.
In still another embodiment of the present invention, the erythrocyte suspension is further washed thrice with 5 mM Hepes, pH 7.4 containing 150 mM NaCl.
In still another embodiment of the present invention, aliquots of cell suspension (˜10^6 cells) in eppendorf tubes are incubated with the peptide in duplicates at 37° C. for 30 min with gentle mixing.
In still another embodiment of the present invention, the tubes are then centrifuged and the absorbance of the supernatants is measured at 540 nm. The lysis obtained with 1% triton×100 is taken as 100%.

Setting [2] is: lowest concentration giving complete inhibition of growth, 37° C., OD600.

Consider `CC[C@H](C)[C@H](N)C(=O)N[C@@H](CC(C)C)C(=O)N1CCC[C@H]1C(=O)N[C@@H](Cc1c[nH]c2ccccc12)C(=O)N[C@@H](CCCCN)C(=O)N[C@@H](Cc1c[nH]c2ccccc12)C(=O)N1CCC[C@H]1C(=O)N[C@@H](Cc1c[nH]c2ccccc12)C(=O)N[C@@H](Cc1c[nH]c2ccccc12)C(=O)N1CCC[C@H]1C(=O)N[C@@H](Cc1c[nH]c2ccccc12)C(=O)N[C@@H](CCCNC(=N)N)C(=O)N[C@@H](CCCNC(=N)N)C(N)=O` [IL, ILPWKWPWWPWRR-amide, reference compound], for which, in data set [1] (setting [2]), the “E.CO// (MIC μg/ml)” value came to 5 µg/mL. Besides, in the data set on Staphylococcus aureus (setting [2]), the “S.aureus (MIC μg/ml)” value is 2 µg/mL. Also, the “% Hemolytic activity at 100 μg/ml” value with rat erythrocytes (100 μg/ml peptide, rat erythrocytes, 37° C., 30 min, 1% triton x100 = 100%) is given as 100^a %.

For “ILPLKLPLLPWRR-NH2 [IL11, ILPLKLPLLPWRR-amide]”, in data set [1] (W160.37), the “E.CO// (MIC μg/ml)” value amounted to 20 µg/mL. The “S.aureus (MIC μg/ml)” value in the data set on Staphylococcus aureus was determined as 5 µg/mL. The “% Hemolytic activity at 100 μg/ml” value in the data set with rat erythrocytes (red cells of rat, 100) amounted to 0%.

As to “ILPLKLPWLPLRR-NH2 [IL8, ILPLKLPWLPLRR-amide]”, the “E.CO// (MIC μg/ml)” value in data set [1] (W160.37) was 20 µg/mL. Moreover, the “S.aureus (MIC μg/ml)” value with Staphylococcus aureus was determined as 10 µg/mL. The “% Hemolytic activity at 100 μg/ml” value with rat erythrocytes (red cells of rat, 100) is 0%.

As for “ILPWKLPLLPLRR-NH2 [IL4, ILPWKLPLLPLRR-amide]”, the “E.CO// (MIC μg/ml)” value in data set [1] (W160.37) was determined as 15 µg/mL. In addition, in the data set on Staphylococcus aureus, the “S.aureus (MIC μg/ml)” value was determined as 10 µg/mL. Further, the “% Hemolytic activity at 100 μg/ml” value with rat erythrocytes (red cells of rat, 100) came to 0%.
